For 38 compounds, class results are on record in patent US20090036448A1, “PYRIMIDINE DERIVATIVES AND METHODS OF TREATMENT RELATED TO THE USE THEREOF” (TAISHO PHARMECUTICAL CO., LTD., priority 2004, published 2009).

MCH receptor, sequence (Q99705 whole entry): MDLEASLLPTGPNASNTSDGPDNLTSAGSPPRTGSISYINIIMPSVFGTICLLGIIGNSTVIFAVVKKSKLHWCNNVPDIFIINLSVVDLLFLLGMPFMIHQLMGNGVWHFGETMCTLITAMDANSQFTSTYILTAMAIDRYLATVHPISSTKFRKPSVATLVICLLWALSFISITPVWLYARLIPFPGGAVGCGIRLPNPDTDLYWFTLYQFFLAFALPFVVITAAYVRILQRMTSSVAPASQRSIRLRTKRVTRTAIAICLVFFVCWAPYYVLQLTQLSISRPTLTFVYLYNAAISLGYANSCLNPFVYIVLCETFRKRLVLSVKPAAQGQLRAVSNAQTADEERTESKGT

This assay addresses MCH receptor (Homo sapiens, UniProt Q99705). The assay is described as follows: Receptor binding assay with Radiolabelled MCH Ligand. On the set-up: expressed in transfected cells; host or cells: 293 cells (human kidney, ATCC), transient transfection; crude membranes. Particulars: class by percent of control at 10^-7 M or IC50. The procedure, abridged:
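Membranes from 293 cells transiently transfected with human MCH receptor competed test compounds against a radiolabelled MCH ligand in Tris-HCl pH 7.4 with MgCl2 and EDTA for 60–120 min at room temperature. Filtration and scintillation counting followed, with cold MCH defining nonspecific binding. IC50 came from logit-log plots of %B/B0, and Ki from the Cheng-Prusoff equation.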
As to `Cc1nc(N[C@H]2CC[C@@H](NCCC3CCCC3)CC2)cc(N(C)C)n1` [compound 402], the class was 3 (Class 3: The value of percent of control at 10^−7 M was more than 60% or the value of IC50 was more than 200 nM.).
The value for `Cc1nc(N[C@H]2CC[C@@H](NC(=O)Cc3ccc(Oc4ccccc4)cc3)CC2)cc(N(C)C)n1` [compound 300] was 3 (Class 3: The value of percent of control at 10^−7 M was more than 60% or the value of IC50 was more than 200 nM.).
In the case of `Cc1ccc(C(=O)CC(Sc2ccc(Cl)cc2)C(=O)N[C@H]2CC[C@@H](Nc3cc(N(C)C)nc(C)n3)CC2)cc1` (relative stereo) [compound 310] it was 3 (Class 3: The value of percent of control at 10^−7 M was more than 60% or the value of IC50 was more than 200 nM.); in that of `Cc1nc(N[C@H]2CC[C@@H](NC(=O)CC(C)S(=O)(=O)c3ccc(Cl)cc3)CC2)cc(N(C)C)n1` (relative stereo) [compound 281], 3 (Class 3: The value of percent of control at 10^−7 M was more than 60% or the value of IC50 was more than 200 nM.); in that of `Cc1cc(C)c(S(=O)(=O)N[C@H]2CC[C@@H](Nc3cc(N(C)C)nc(C)n3)CC2)c(C)c1` [compound 486], 3 (Class 3: The value of percent of control at 10^−7 M was more than 60% or the value of IC50 was more than 200 nM.).
Take `Cc1nc(N[C@H]2CC[C@@H](NC(=O)OCC3c4ccccc4-c4ccccc43)CC2)cc(N(C)C)n1` [compound 469]: the class is recorded as 3 (Class 3: The value of percent of control at 10^−7 M was more than 60% or the value of IC50 was more than 200 nM.).
Turning to `Cc1nc(N[C@H]2CC[C@@H](NCC3C[C@H]3c3ccccc3)CC2)cc(N(C)C)n1` (some centres unmarked) [compound 383], the class is on record as 3 (Class 3: The value of percent of control at 10^−7 M was more than 60% or the value of IC50 was more than 200 nM.).
In the case of `Cc1nc(N[C@H]2CC[C@@H](NC(=O)C3CCCC[C@@H]3NC(=O)c3ccccc3)CC2)cc(N(C)C)n1` (some centres unmarked) [compound 276] it was 3 (Class 3: The value of percent of control at 10^−7 M was more than 60% or the value of IC50 was more than 200 nM.); in that of `Cc1nc(N[C@H]2CC[C@@H](NCc3cnn(-c4ccc([N+](=O)[O-])cc4)c3C(F)(F)F)CC2)cc(N(C)C)n1` [compound 380], 3 (Class 3: The value of percent of control at 10^−7 M was more than 60% or the value of IC50 was more than 200 nM.).
In the case of `CCCCOc1ccc(S(=O)(=O)N[C@H]2CC[C@@H](Nc3cc(N(C)C)nc(C)n3)CC2)cc1` [compound 494] it was 3 (Class 3: The value of percent of control at 10^−7 M was more than 60% or the value of IC50 was more than 200 nM.).
With `Cc1nc(N[C@H]2CC[C@@H](NCCc3ccc(Cl)cc3)CC2)cc(N(C)C)n1` [compound 364], the class is reported as 3 (Class 3: The value of percent of control at 10^−7 M was more than 60% or the value of IC50 was more than 200 nM.).
`Cc1nc(N[C@H]2CC[C@@H](NC(=O)OCC(C)(C)C)CC2)cc(N(C)C)n1` [compound 452]: the class is given as 3 (Class 3: The value of percent of control at 10^−7 M was more than 60% or the value of IC50 was more than 200 nM.).
Consider `Cc1nc(N[C@H]2CC[C@@H](NC[C@H](Cc3ccccc3)NS(=O)(=O)c3cccc4ccccc34)CC2)cc(N(C)C)n1` [compound 404], for which the class is reported as 3 (Class 3: The value of percent of control at 10^−7 M was more than 60% or the value of IC50 was more than 200 nM.).
In the case of `Cc1nc(N[C@H]2CC[C@@H](NC(=O)c3cccc4c3-c3ccc([N+](=O)[O-])cc3C4)CC2)cc(N(C)C)n1` [compound 308] it was 3 (Class 3: The value of percent of control at 10^−7 M was more than 60% or the value of IC50 was more than 200 nM.).
The value for `Cc1nc(N[C@H]2CC[C@@H](NC(=O)[C@@H]3CCCN3S(=O)(=O)c3ccc(C(C)(C)C)cc3)CC2)cc(N(C)C)n1` (relative stereo) [compound 277] was 3 (Class 3: The value of percent of control at 10^−7 M was more than 60% or the value of IC50 was more than 200 nM.); that for `Cc1nc(N[C@H]2CC[C@@H](NCCOc3c(F)c(F)c(F)c(F)c3F)CC2)cc(N(C)C)n1` [compound 389] was 3 (Class 3: The value of percent of control at 10^−7 M was more than 60% or the value of IC50 was more than 200 nM.).
On to `COc1cc(COC(=O)N[C@H]2CC[C@@H](Nc3cc(N(C)C)nc(C)n3)CC2)c([N+](=O)[O-])cc1OC` [compound 453], for which the class is on record as 3 (Class 3: The value of percent of control at 10^−7 M was more than 60% or the value of IC50 was more than 200 nM.).
In the case of `Cc1nc(N[C@H]2CC[C@@H](NS(=O)(=O)c3cccc(C#N)c3)CC2)cc(N(C)C)n1` [compound 499] it was 3 (Class 3: The value of percent of control at 10^−7 M was more than 60% or the value of IC50 was more than 200 nM.); in that of `Cc1nc(N[C@H]2CC[C@@H](NC(=O)CC3CCCCC3)CC2)cc(N(C)C)n1` [compound 279], 3 (Class 3: The value of percent of control at 10^−7 M was more than 60% or the value of IC50 was more than 200 nM.); in that of `Cc1nc(N[C@H]2CC[C@@H](NCC3CC3)CC2)cc(N(C)C)n1` [compound 362], 3 (Class 3: The value of percent of control at 10^−7 M was more than 60% or the value of IC50 was more than 200 nM.).
For the compound `Cc1nc(N[C@H]2CC[C@@H](NC(=O)COc3c(F)c(F)c(F)c(F)c3F)CC2)cc(N(C)C)n1` [compound 244], the class is recorded as 3 (Class 3: The value of percent of control at 10^−7 M was more than 60% or the value of IC50 was more than 200 nM.).
As to `Cc1nc(N[C@H]2CC[C@@H](NC(=O)CCc3ccccc3)CC2)cc(N(C)C)n1` [compound 258], the class was 3 (Class 3: The value of percent of control at 10^−7 M was more than 60% or the value of IC50 was more than 200 nM.).
The value for `Cc1nc(N[C@H]2CC[C@@H](NCCOc3ccc(C(C)(C)C)cc3)CC2)cc(N(C)C)n1` [compound 400] was 3 (Class 3: The value of percent of control at 10^−7 M was more than 60% or the value of IC50 was more than 200 nM.); that for `COc1ccc(NC(=S)N[C@H]2CC[C@@H](Nc3cc(N(C)C)nc(C)n3)CC2)c(OC)c1` [compound 444] was 3 (Class 3: The value of percent of control at 10^−7 M was more than 60% or the value of IC50 was more than 200 nM.).
On to `COc1ccc2c(c1)C(CC(=O)N[C@H]1CC[C@@H](Nc3cc(N(C)C)nc(C)n3)CC1)CC2=O` (relative stereo) [compound 290], for which the class is reported as 3 (Class 3: The value of percent of control at 10^−7 M was more than 60% or the value of IC50 was more than 200 nM.).
On to `COc1cc(NC(=S)N[C@H]2CC[C@@H](Nc3cc(N(C)C)nc(C)n3)CC2)cc(OC)c1OC` [compound 442, N-(cis-4-{[6-(dimethylamino)-2-methylpyrimidin-4-yl]amino}cyclohexyl)-N′-(3,4,5-trimethoxyphenyl)thiourea], for which the class is reported as 1 (Class 1: The value of percent of control at 10^−7 M was less than 40% or the value of IC50 was less than 50 nM.).
In the case of `Cc1nc(N[C@H]2CC[C@@H](NCC3(c4ccc(Cl)cc4)CCCC3)CC2)cc(N(C)C)n1` [compound 365] it was 3 (Class 3: The value of percent of control at 10^−7 M was more than 60% or the value of IC50 was more than 200 nM.); in that of `COc1ccc(CN[C@H]2CC[C@@H](Nc3cc(N(C)C)nc(C)n3)CC2)cc1OC` [compound 370], 3 (Class 3: The value of percent of control at 10^−7 M was more than 60% or the value of IC50 was more than 200 nM.).
As for `Cc1nc(N[C@H]2CC[C@@H](NC(=O)COCc3ccccc3)CC2)cc(N(C)C)n1` [compound 206], the class is reported as 3 (Class 3: The value of percent of control at 10^−7 M was more than 60% or the value of IC50 was more than 200 nM.).
Take `Cc1nc(N[C@H]2CC[C@@H](NC(=O)NC(c3ccccc3)c3ccccc3)CC2)cc(N(C)C)n1` [compound 414]: the class is 3 (Class 3: The value of percent of control at 10^−7 M was more than 60% or the value of IC50 was more than 200 nM.).
The value for `CCOC(=O)c1c(S(=O)(=O)N[C@H]2CC[C@@H](Nc3cc(N(C)C)nc(C)n3)CC2)c(-c2ccccc2)n(-c2ccccc2)c1C` [compound 506] was 3 (Class 3: The value of percent of control at 10^−7 M was more than 60% or the value of IC50 was more than 200 nM.).
On to `Cc1nc(N[C@H]2CC[C@@H](NC(=O)CNc3ccccc3)CC2)cc(N(C)C)n1` [compound 303], for which the class is on record as 3 (Class 3: The value of percent of control at 10^−7 M was more than 60% or the value of IC50 was more than 200 nM.).
In the case of `COC(=O)N[C@H]1CC[C@@H](Nc2cc(N(C)C)nc(C)n2)CC1` [compound 467] it was 3 (Class 3: The value of percent of control at 10^−7 M was more than 60% or the value of IC50 was more than 200 nM.); in that of `Cc1nc(N[C@H]2CC[C@@H](NCc3cc(C(C)(C)C)nn3Cc3ccccc3)CC2)cc(N(C)C)n1` [compound 407], 3 (Class 3: The value of percent of control at 10^−7 M was more than 60% or the value of IC50 was more than 200 nM.).
The value for `Cc1nc(N[C@H]2CC[C@@H](NC(=O)c3cnn(C)c3Cl)CC2)cc(N(C)C)n1` [compound 272] was 3 (Class 3: The value of percent of control at 10^−7 M was more than 60% or the value of IC50 was more than 200 nM.); that for `Cc1nc(N[C@H]2CC[C@@H](NS(=O)(=O)c3ccc(S(C)(=O)=O)cc3)CC2)cc(N(C)C)n1` [compound 498] was 3 (Class 3: The value of percent of control at 10^−7 M was more than 60% or the value of IC50 was more than 200 nM.).
Turning to `Cc1ccc(OC(=O)N[C@H]2CC[C@@H](Nc3cc(N(C)C)nc(C)n3)CC2)cc1` [compound 466], the class is 3 (Class 3: The value of percent of control at 10^−7 M was more than 60% or the value of IC50 was more than 200 nM.).
In the case of `COc1ccc(CCN[C@H]2CC[C@@H](Nc3cc(N(C)C)nc(C)n3)CC2)cc1OC` [compound 390] it was 3 (Class 3: The value of percent of control at 10^−7 M was more than 60% or the value of IC50 was more than 200 nM.).
